Measurements taken from the NIST ThermoML archive (doi:10.1021/je400423u).
Numbers after ± are expanded uncertainties.

Assay: xn = mol fraction of the nth substance listed
Details: 101 kPa, Liquid; for viscosity: Falling or rolling sphere viscometry; for mass density: Vibrating tube method

**Q.** Which results are given for CC(C)CO [2-methyl-1-propanol] + CC(C)(C)O?
**A.** viscosity (308.15 K, x1 = 0.1038): 2.723 ± 0.021 mPa·s; viscosity (308.15 K, x1 = 0.2004): 2.802 ± 0.022 mPa·s; viscosity (308.15 K, x1 = 0.3131): 2.84 ± 0.022 mPa·s; viscosity (308.15 K, x1 = 0.3971): 2.837 ± 0.022 mPa·s; viscosity (308.15 K, x1 = 0.4999): 2.812 ± 0.022 mPa·s; viscosity (308.15 K, x1 = 0.6002): 2.773 ± 0.022 mPa·s; viscosity (308.15 K, x1 = 0.6999): 2.723 ± 0.021 mPa·s; viscosity (308.15 K, x1 = 0.7993): 2.667 ± 0.021 mPa·s; viscosity (308.15 K, x1 = 0.8941): 2.607 ± 0.02 mPa·s; viscosity (308.15 K, x1 = 1): 2.382 ± 0.019 mPa·s; mass density (308.15 K, x1 = 0.1038): 773.016 ± 0.12 kg/m3; mass density (308.15 K, x1 = 0.2004): 775.321 ± 0.12 kg/m3; mass density (308.15 K, x1 = 0.3131): 777.898 ± 0.12 kg/m3; mass density (308.15 K, x1 = 0.3971): 779.742 ± 0.12 kg/m3; mass density (308.15 K, x1 = 0.4999): 781.894 ± 0.12 kg/m3; mass density (308.15 K, x1 = 0.6002): 783.901 ± 0.12 kg/m3; mass density (308.15 K, x1 = 0.6999): 785.765 ± 0.12 kg/m3; mass density (308.15 K, x1 = 0.7993): 787.468 ± 0.12 kg/m3; mass density (308.15 K, x1 = 0.8941): 788.855 ± 0.12 kg/m3; mass density (308.15 K, x1 = 1): 790.12 ± 0.12 kg/m3; viscosity (313.15 K, x1 = 0.1038): 2.19 ± 0.017 mPa·s; viscosity (313.15 K, x1 = 0.2004): 2.263 ± 0.018 mPa·s; viscosity (313.15 K, x1 = 0.3131): 2.312 ± 0.018 mPa·s; viscosity (313.15 K, x1 = 0.3971): 2.327 ± 0.018 mPa·s; viscosity (313.15 K, x1 = 0.4999): 2.329 ± 0.018 mPa·s; viscosity (313.15 K, x1 = 0.6002): 2.317 ± 0.018 mPa·s; viscosity (313.15 K, x1 = 0.6999): 2.294 ± 0.018 mPa·s; viscosity (313.15 K, x1 = 0.7993): 2.264 ± 0.018 mPa·s; viscosity (313.15 K, x1 = 0.8941): 2.229 ± 0.017 mPa·s; viscosity (313.15 K, x1 = 1): 2.116 ± 0.017 mPa·s; mass density (313.15 K, x1 = 0.1038): 767.906 ± 0.13 kg/m3; mass density (313.15 K, x1 = 0.2004): 770.357 ± 0.13 kg/m3; mass density (313.15 K, x1 = 0.3131): 773.062 ± 0.12 kg/m3; mass density (313.15 K, x1 = 0.3971): 774.993 ± 0.12 kg/m3; mass density (313.15 K, x1 = 0.4999): 777.281 ± 0.12 kg/m3; mass density (313.15 K, x1 = 0.6002): 779.435 ± 0.12 kg/m3; mass density (313.15 K, x1 = 0.6999): 781.451 ± 0.12 kg/m3; mass density (313.15 K, x1 = 0.7993): 783.274 ± 0.12 kg/m3; mass density (313.15 K, x1 = 0.8941): 784.79 ± 0.12 kg/m3; mass density (313.15 K, x1 = 1): 786.12 ± 0.12 kg/m3; viscosity (318.15 K, x1 = 0.1038): 1.786 ± 0.014 mPa·s; viscosity (318.15 K, x1 = 0.2004): 1.852 ± 0.015 mPa·s; viscosity (318.15 K, x1 = 0.3131): 1.904 ± 0.015 mPa·s; viscosity (318.15 K, x1 = 0.3971): 1.93 ± 0.015 mPa·s; viscosity (318.15 K, x1 = 0.4999): 1.949 ± 0.015 mPa·s; viscosity (318.15 K, x1 = 0.6002): 1.955 ± 0.015 mPa·s; viscosity (318.15 K, x1 = 0.6999): 1.954 ± 0.015 mPa·s; viscosity (318.15 K, x1 = 0.7993): 1.94 ± 0.015 mPa·s; viscosity (318.15 K, x1 = 0.8941): 1.919 ± 0.015 mPa·s; viscosity (318.15 K, x1 = 1): 1.861 ± 0.015 mPa·s; mass density (318.15 K, x1 = 0.1038): 762.689 ± 0.13 kg/m3; mass density (318.15 K, x1 = 0.2004): 765.271 ± 0.13 kg/m3; mass density (318.15 K, x1 = 0.3131): 768.112 ± 0.13 kg/m3; mass density (318.15 K, x1 = 0.3971): 770.15 ± 0.13 kg/m3; mass density (318.15 K, x1 = 0.4999): 772.578 ± 0.12 kg/m3; mass density (318.15 K, x1 = 0.6002): 774.881 ± 0.12 kg/m3; mass density (318.15 K, x1 = 0.6999): 777.066 ± 0.12 kg/m3; mass density (318.15 K, x1 = 0.7993): 779.045 ± 0.12 kg/m3; mass density (318.15 K, x1 = 0.8941): 780.694 ± 0.12 kg/m3; mass density (318.15 K, x1 = 1): 782.06 ± 0.12 kg/m3; viscosity (323.15 K, x1 = 0.1038): 1.479 ± 0.012 mPa·s; viscosity (323.15 K, x1 = 0.2004): 1.536 ± 0.012 mPa·s; viscosity (323.15 K, x1 = 0.3131): 1.59 ± 0.013 mPa·s; viscosity (323.15 K, x1 = 0.3971): 1.619 ± 0.013 mPa·s; viscosity (323.15 K, x1 = 0.4999): 1.643 ± 0.013 mPa·s; viscosity (323.15 K, x1 = 0.6002): 1.658 ± 0.013 mPa·s; viscosity (323.15 K, x1 = 0.6999): 1.664 ± 0.013 mPa·s; viscosity (323.15 K, x1 = 0.7993): 1.662 ± 0.013 mPa·s; viscosity (323.15 K, x1 = 0.8941): 1.655 ± 0.013 mPa·s; viscosity (323.15 K, x1 = 1): 1.602 ± 0.013 mPa·s; mass density (323.15 K, x1 = 0.1038): 757.428 ± 0.13 kg/m3; mass density (323.15 K, x1 = 0.2004): 760.154 ± 0.13 kg/m3; mass density (323.15 K, x1 = 0.3131): 763.135 ± 0.13 kg/m3; mass density (323.15 K, x1 = 0.3971): 765.278 ± 0.13 kg/m3; mass density (323.15 K, x1 = 0.4999): 767.832 ± 0.13 kg/m3; mass density (323.15 K, x1 = 0.6002): 770.282 ± 0.13 kg/m3; mass density (323.15 K, x1 = 0.6999): 772.615 ± 0.12 kg/m3; mass density (323.15 K, x1 = 0.7993): 774.761 ± 0.12 kg/m3
